ChEMBL document CHEMBL3638875, “Pyrazol-4-yl-heterocyclyl-carboxamide compounds and methods of use” (2014)
pKi: −log10 of the molar value.

Legend:
[1] = molecular target: Serine/threonine-protein kinase pim-3 (Homo sapiens, UniProt Q86V86); test: (§1) Binding Assay: PIM-1, -2, and -3 enzymes were generated as fusion proteins expressed in bacteria and purified by IMAC column chromatography (Sun, X., Chiu, J. F., and He, Q. Y. (2005) Expert Rev. Proteomics, 2:649-657). A fluorescent-labeled Pim-specific peptide substrate, was custom synthesized by American Peptide Company (Sunnyvale, Calif.). Reaction Buffer contained 10 mM HEPES, pH 7.2, 10 mM MgCl2, 0.01% Tween 20, 2 mM DTT. Termination Buffer contained 190 mM HEPES, pH 7.2, 0.015% Brij-35, 0.2% Coating Reagent 3 (Caliper Life Sciences, Hopkinton, Mass.), 20 mM EDTA. Separation Buffer contained 100 mM HEPES, pH 7.2, 0.015% Brij-35, 0.1% Coating Reagent 3, 1:200 Coating Reagent 8 (Caliper Life Sciences, Hopkinton, Mass.), 10 mM EDTA and 5% DMSO.
[2] = molecular target: Serine/threonine-protein kinase pim-2 (Homo sapiens, UniProt Q9P1W9); test: as §1, with “A” for “Binding Assay: PIM-1, -2, and -3 enzymes were generated as fusion proteins expressed in bacteria and purified by IMAC column chromatography (Sun, X., Chiu, J. F., and He, Q. Y. (2005) Expert Rev. Proteomics, 2:649-657). A”
Sequence of Serine/threonine-protein kinase pim-2 (Q9P1W9 whole entry, the tested form may be a part): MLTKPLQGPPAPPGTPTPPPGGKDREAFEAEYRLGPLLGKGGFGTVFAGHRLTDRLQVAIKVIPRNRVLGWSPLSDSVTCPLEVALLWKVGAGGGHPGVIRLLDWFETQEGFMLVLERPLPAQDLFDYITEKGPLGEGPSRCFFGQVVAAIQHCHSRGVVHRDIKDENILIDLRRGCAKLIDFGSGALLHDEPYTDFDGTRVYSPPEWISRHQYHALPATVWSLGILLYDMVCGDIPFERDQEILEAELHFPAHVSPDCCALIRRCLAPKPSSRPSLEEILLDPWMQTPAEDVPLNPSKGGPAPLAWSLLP

pKi [1]: 7.17
pKi [2]: 6.81
SMILES: Cn1ncc(NC(=O)c2nc(Br)cnc2N)c1N1CCC[C@H](N)C1
